# Measurements reported in ChEMBL document CHEMBL1201862, “PubChem BioAssay data set” (2004).
#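 Five compound concentrations were applied to cells in 96-well plates for 48 hours; endpoints were derived by simple linear interpolation of the resulting dose-response curve. GI50: concentration for 50% inhibition of growth.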 The source made the active and inactive calls. Rule as the data show it: active = GI50 up to about 1.1 µM and inactive = higher.
# How the values were obtained:
# Assay in all cases: inhibition of tumour cell growth, NCI panel, 48 h
# [1] = tested on: 786-0
# [2] = tested on: A498
# [3] = tested on: A549
# [4] = tested on: ACHN
# [5] = tested on: CAKI-1
# [6] = tested on: CCRF-CEM
# [7] = tested on: COLO 205
# [8] = tested on: DMS-114
# [9] = tested on: DMS-273
# [10] = tested on: EKVX
# [11] = tested on: HCC 2998
# [12] = tested on: HCT-116
# [13] = tested on: HCT-15
# [14] = tested on: HL-60
# [15] = tested on: HOP-18
# [16] = tested on: HOP-62
# [17] = tested on: HOP-92
# [18] = tested on: HT-29
# [19] = tested on: IGROV-1
# [20] = tested on: K562
# [21] = tested on: KM-20L2
# [22] = tested on: KM12
# [23] = tested on: LOX IMVI
# [24] = tested on: LXFL 529
# [25] = tested on: M14
# [26] = tested on: M19-MEL
# [27] = tested on: MOLT-4
# [28] = tested on: Malme-3M
# [29] = tested on: NCI-H226
# [30] = tested on: NCI-H23
# [31] = tested on: NCI-H460
# [32] = tested on: NCI-H522
# [33] = tested on: OVCAR-3
# [34] = tested on: OVCAR-4
# [35] = tested on: OVCAR-5
# [36] = tested on: OVCAR-8
# [37] = tested on: RPMI-8226
# [38] = tested on: RXF 393
# [39] = tested on: RXF 631
# [40] = tested on: SF-268
# [41] = tested on: SF-295
# [42] = tested on: SK-MEL-28
# [43] = tested on: SK-MEL-2
# [44] = tested on: SK-MEL-5
# [45] = tested on: SK-OV-3
# [46] = tested on: SN12C
# [47] = tested on: SNB-19
# [48] = tested on: SNB-75
# [49] = tested on: SNB-78
# [50] = tested on: SW-620
# [51] = tested on: TK-10
# [52] = tested on: U-251
# [53] = tested on: UACC-257
# [54] = tested on: UACC-62
# [55] = tested on: UO-31
# [56] = tested on: XF498
# [57] = tested on: DLD-1
# [58] = tested on: SF-539
smiles,measurement,setting,value
COc1cc(Nc2cnc3ccc(N)cc3n2)cc(OC)c1OC,GI50,[1],> 100 µM (inactive)
same,GI50,[2],> 100 µM (inactive)
same,GI50,[3],> 100 µM (inactive)
same,GI50,[4],> 100 µM (inactive)
same,GI50,[5],59.2 µM (inactive)
same,GI50,[6],19.8 µM (inactive)
same,GI50,[7],42.5 µM (inactive)
same,GI50,[8],79.3 µM (inactive)
same,GI50,[9],> 85.3 µM (inactive)
same,GI50,[10],> 100 µM (inactive)
same,GI50,[11],> 100 µM (inactive)
same,GI50,[12],> 94.6 µM (inactive)
same,GI50,[13],69.2 µM
same,GI50,[14],17.7 µM (inactive)
same,GI50,[15],39.4 µM (inactive)
same,GI50,[16],29.2 µM (inactive)
same,GI50,[17],61.2 µM (inactive)
same,GI50,[18],48.9 µM (inactive)
same,GI50,[19],80.4 µM (inactive)
same,GI50,[20],18.5 µM (inactive)
same,GI50,[21],56.6 µM (inactive)
same,GI50,[22],39.4 µM (inactive)
same,GI50,[23],36.6 µM (inactive)
same,GI50,[24],56.5 µM (inactive)
same,GI50,[25],> 100 µM (inactive)
same,GI50,[26],> 84.1 µM (inactive)
same,GI50,[27],49 µM (inactive)
same,GI50,[28],> 65.2 µM (inactive)
same,GI50,[29],> 100 µM (inactive)
same,GI50,[30],98.6 µM (inactive)
same,GI50,[31],69.3 µM (inactive)
same,GI50,[32],50.1 µM (inactive)
same,GI50,[33],41.3 µM (inactive)
same,GI50,[34],> 100 µM (inactive)
same,GI50,[35],> 100 µM (inactive)
same,GI50,[36],> 100 µM (inactive)
same,GI50,[37],16.6 µM (inactive)
same,GI50,[38],45.3 µM (inactive)
same,GI50,[39],> 100 µM (inactive)
same,GI50,[40],> 100 µM (inactive)
same,GI50,[41],> 96.6 µM (inactive)
same,GI50,[42],78.2 µM (inactive)
same,GI50,[43],> 100 µM (inactive)
same,GI50,[44],16.9 µM (inactive)
same,GI50,[45],> 86.9 µM (inactive)
same,GI50,[46],> 100 µM (inactive)
same,GI50,[47],> 100 µM (inactive)
same,GI50,[48],49.3 µM (inactive)
same,GI50,[49],> 100 µM (inactive)
same,GI50,[50],> 100 µM (inactive)
same,GI50,[51],> 83.6 µM (inactive)
same,GI50,[52],> 100 µM (inactive)
same,GI50,[53],> 57 µM (inactive)
same,GI50,[54],69.3 µM (inactive)
same,GI50,[55],37.8 µM (inactive)
same,GI50,[56],11 µM (inactive)
O=C(O)C1=C(CO)Oc2cc3c(cc2C1c1ccc2c(c1)OCO2)OCO3 (stereo not given),GI50,[3],> 100 µM (inactive)
same,GI50,[4],> 100 µM (inactive)
same,GI50,[5],> 100 µM (inactive)
same,GI50,[6],> 100 µM (inactive)
same,GI50,[7],> 100 µM (inactive)
same,GI50,[57],> 100 µM (inactive)
same,GI50,[8],> 100 µM (inactive)
same,GI50,[9],> 100 µM (inactive)
same,GI50,[10],> 100 µM (inactive)
same,GI50,[12],> 100 µM (inactive)
same,GI50,[13],> 100 µM
same,GI50,[14],> 100 µM (inactive)
same,GI50,[15],> 100 µM (inactive)
same,GI50,[16],> 100 µM (inactive)
same,GI50,[17],> 100 µM (inactive)
same,GI50,[18],> 100 µM (inactive)
same,GI50,[19],> 100 µM (inactive)
same,GI50,[20],> 100 µM (inactive)
same,GI50,[21],> 100 µM (inactive)
same,GI50,[23],> 100 µM (inactive)
same,GI50,[25],> 100 µM (inactive)
same,GI50,[26],> 100 µM (inactive)
same,GI50,[27],> 100 µM (inactive)
same,GI50,[28],> 100 µM (inactive)
same,GI50,[30],> 100 µM (inactive)
same,GI50,[31],> 100 µM (inactive)
same,GI50,[33],> 100 µM (inactive)
same,GI50,[34],> 100 µM (inactive)
same,GI50,[36],> 100 µM (inactive)
same,GI50,[37],> 100 µM (inactive)
same,GI50,[38],> 100 µM (inactive)
same,GI50,[39],> 100 µM (inactive)
same,GI50,[41],> 100 µM (inactive)
same,GI50,[58],> 100 µM (inactive)
same,GI50,[42],> 100 µM (inactive)
same,GI50,[43],> 100 µM (inactive)
same,GI50,[44],> 100 µM (inactive)
same,GI50,[45],> 100 µM (inactive)
same,GI50,[46],> 100 µM (inactive)
same,GI50,[47],> 100 µM (inactive)
same,GI50,[48],> 100 µM (inactive)
same,GI50,[49],> 100 µM (inactive)
same,GI50,[50],> 100 µM (inactive)
same,GI50,[51],> 100 µM (inactive)
same,GI50,[52],> 100 µM (inactive)
same,GI50,[53],> 100 µM (inactive)
same,GI50,[54],> 100 µM (inactive)
same,GI50,[55],> 100 µM (inactive)
same,GI50,[56],> 100 µM (inactive)
